SMILES strings stand for the structures.

What is called melting point is the temperature of the solid-liquid transition. On to `COC(=O)CCCc1ccc(C(=O)Cc2ccccc2)cc1`, for which the melting point lay within 54 to 54.5 °C. `CCn1nc(C#N)c(Nc2ccc(Cl)cc2[N+](=O)[O-])n1`: the melting point lay within 130 to 132 °C. For `O=C(CN1C(=O)CC1S(=O)(=O)c1ccccc1)NCCCCCCc1ccc(Cl)cc1` (single isomer, unassigned; (-)) the value was 106 to 109 °C; for `O=[N+]([O-])c1ccc(F)c(-c2ccsc2)c1`, 65 °C; for `CCCc1c(OCCOc2ccc3c(=O)cc(-c4ccc(C(=O)OCC)cc4)oc3c2CCC)ccc(C(C)=O)c1O`, 167 to 168 °C.

For `CCOC1CC2(C)C(CCC3C4CCC(C(=O)OC)C4(C)CC(NC4CCCCC4)C32)CC1O` (configuration not stated), the melting point lay within 110 to 112 °C. For `c1cc(-c2ccc(N3CCNCC3)nc2)nc(Nc2ccc3[nH]nnc3c2)n1` the value was 280 to 283 °C; for `CCOC(=O)[C@H]1O[C@@H]1C(=O)N[C@H](CNC(=O)c1ccccc1)CC(C)C`, 126 to 129 °C. For `CC(C)(C)c1cc(CC=Cc2ccccc2)c(O)c(C(C)(C)C)c1` the value was 89 °C; for `CCCC(=O)Nc1n[nH]c2c(N)cc(C)nc12`, 170 to 171 °C. Next, `O=C1CNc2ncc(I)cc2N1Cc1cccnc1Cl`: 249 °C. Consider `CCCc1n[nH]cc1-c1nsc(Nc2ccccn2)n1`, for which the melting point lay in the range of 248 to 250 °C. For `CC(=O)NC[C@H]1CC[C@H](C(=O)c2cc3c4c(c2)CCN4C(=O)CC3)CC1` the value was 178 to 180 °C.

On to `CC(=O)OCCC(C(N)=O)C1(C)OCCc2c1[nH]c1ccccc21` (configuration not stated), for which the melting point was in the range of 141 to 143 °C. Regarding `COC(=O)/C=C/c1nccs1`, the melting point was in the range of 75 to 75.5 °C. In turn, `CN1C(C)(C)CC(NC(=O)c2ccc(-c3nc4cc(Cl)c(Cl)cc4[nH]3)c(O)c2)CC1(C)C` had a melting point of more than 250 °C. In turn, `Cc1c(CNS(=O)(=O)c2ccc(C(F)(F)F)cc2)nn(-c2ccc(Cl)cc2Cl)c1-c1ccc(Br)cc1` showed a melting point of 195 °C. For `CCOc1cc(OCCCc2cn(-c3ccc(C(F)(F)F)cn3)nc2-c2ccccc2)ccc1CCC(=O)O` the value was 135 to 136 °C; for `CCCCCCCOC(=O)Cc1nc(-c2ccc(Cl)cc2)oc1-c1ccco1`, 69 to 70 °C; for `COC(=O)c1cc(-c2ccc(S(C)(=O)=O)cc2)n(-c2ccc(F)cc2)c1C`, 154 to 155 °C. Next, `CCCCCCCC1CCC(CC(C#N)c2ccc(Br)cc2)CC1` (configuration not stated): 56 to 57 °C. `CCCc1c(OCc2ccccc2C(=O)NCCCCc2cccnc2)ccc(C(C)=O)c1O` yielded a melting point of 135 to 139 °C. Next, `CCOC(=O)C1N=C(c2ccccc2)c2cc(Cl)ccc2NC1=O` (configuration not stated): 244 °C.

For `Cc1c(C#N)sc2nc(-c3ccc4c(c3)OCO4)nc(N(C)CCO)c12`, the melting point is 195 to 197 °C.

`Cc1c(C)c2c(c(C)c1O)CCC(C#N)(C(C)C)O2` (configuration not stated): the melting point was 132 °C. For the molecule `O=S(=O)(c1cccnc1)N1CCC(Nc2nc(Nc3cccc(C(F)(F)F)c3)nc(OCC(F)(F)F)n2)CC1`, the melting point fell in the range of 222 to 224 °C. `CC(=CC(C)(O)c1ccc(Cl)cc1Cl)n1cncn1` (configuration not stated): the melting point is 101 °C. For `COC(=O)C1=C(C)N(Cc2ccccc2[N+](=O)[O-])C(C)=C(C(=O)OC)C1c1cccc2nonc12` the value was 192 °C. For `CC(C)C1CC(=O)C(C(=O)Nc2ccc(Cl)c(Cl)c2)C(=O)C1` (configuration not stated) the value was 138 °C. Turning to `CC(=O)SCCS(C)(=O)=O`, the melting point was in the range of 57 to 59 °C. Next, `N#CCOC(=O)c1cccnc1SCC#N`: 140 to 143 °C; `CCOC(=O)C(NC(C)=O)C(=O)CCCCc1ccccc1` (configuration not stated): 54 to 55 °C; `O=c1[nH]c2ccc(CCN3CCN(c4cc(O)cc5cccnc45)CC3)cc2o1`: 200 °C. Next, `OCC(O)(Cc1ccc(Cl)cc1Cl)c1cccnc1` (configuration not stated): 158 to 159 °C.

`CC(C)(N)Cn1c(CO)nc2c(N)nc3ccccc3c21` returned a melting point of 248 to 250 °C. For `COc1cc2c(cc1OC)CCN(CCCN(C)C1CCc3cc(OC)c(OC)cc3C1)CC2` (configuration not stated), the melting point is 92 to 93 °C. Consider `COc1ccc(-c2ccc(C(=O)Nc3cc4ncc(CN5CCCC5)cc4cc3F)c(F)c2)cc1`, for which the melting point is 174 to 176 °C. Next, `Oc1cnc2c(O)cccc2c1`: 139 to 141 °C; `O=c1[nH]c2ccc(C(c3ccc(Cl)cc3)n3ccnc3-c3ccccc3)cc2c(Oc2cccc(Cl)c2)c1CO` (configuration not stated): 246 °C. For `CCOP(=O)(COCCOn1cnc2c(N)ncnc21)OCC` the value was 74 to 76 °C; for `CCOc1ccc(-c2c(Cl)ncn2-c2ccc(S(=O)(=O)NC(C)(C)C)cc2)cc1`, 189 °C; for `O=c1ccc(-c2c(-c3ccccc3)nn3ccccc23)nn1C1CCC2(CC1)OCCO2`, 189 to 190 °C.

As for `Cc1cc(-c2cccc(CO)c2)cn2cc(-c3ccc(Cl)cc3)nc12`, the melting point was in the range of 174 to 177 °C.

Consider `COC(=O)c1ccc2cc(-c3cccc(OC)c3)oc2c1`, for which the melting point was 150 to 152 °C. For `COc1ccc(C(=Nc2c(Cl)cncc2Cl)NCc2ccccc2)cc1OC1CCCC1` the value was 129 to 133 °C; for `CCc1ccc2c(C3=C(c4cn(C)c5ccccc45)C(=O)NC3=O)cn(C)c2c1`, 247 to 248 °C; for `CCc1ccc(OCc2cccc(NC(=O)CCC(=O)OC)c2)cc1OC`, 69 to 70 °C. For `CC(C)N(C)CCOc1ccc(-n2ccc(OCc3ccc(Cl)cn3)cc2=O)cc1` the value was 137 to 138 °C.

In turn, `CC1CCCN(C2c3cc4nonc4cc3OC(C)(C)C2O)C1=O` (configuration not stated) showed a melting point of 146 to 149 °C. Next, `COc1cccc2c1nc(C(F)F)n2-c1nc(Nc2ccc(Cl)nc2)nc(N2CCOCC2)n1`: 260 to 262 °C.

The molecule `NC(=NC(=O)Cn1c(Cl)ccc1Cl)NC(=O)Cc1ccccc1` registered a melting point of 181 to 183 °C. For `O=C(Nc1ccc(O)c(O)c1)C12CC3CC(CC(C3)C1)C2` the value was 196 to 199 °C; for `CS(=O)(=O)c1ccc(C(=O)c2cc(-c3ccccc3)c(N3CCOCC3)s2)cc1`, 175 °C. For `CCCc1c(SCCCOc2ccc(C#N)cc2)ccc(C(C)=O)c1O` the value was 90 to 92 °C; for `COc1cc(N)c(Cl)cc1C(=O)NN1CCN(Cc2ccc(N(C)C)cc2)CC1`, 208 to 210 °C; for `NCCNC(c1ccccc1)c1ccccc1`, 23 to 24 °C.

For the molecule `Cc1cc(C)c2c(c1)C=C(/C=C/C=C/C=C/C(=O)O)CO2`, the melting point lay in the range of 208 to 210 °C. `CCCCCCCCCCCCc1nnn(CC(=O)OCC)n1` came in with a melting point of 38 to 40 °C.

`CN1CCC2(CC1)c1ccccc1Oc1c(N)cccc12` had a melting point of 173 to 174 °C. `O=C(OCC1OC(n2ccc(=O)[nH]c2=O)C(O)C1OC(=O)c1ccccc1)c1ccccc1` (configuration not stated) registered a melting point of 111 to 114 °C. For `c1ccc(-c2cc(N3CCNCC3)nc(-c3ccccn3)n2)nc1` the value was 159 to 161 °C. Next, `c1ccc2c(c1)c1ccccc1n2CCCCCCn1c2ccccc2c2ccccc21`: 124 to 126 °C. Turning to `CC(C)Oc1ccc(-n2c(-c3ccc(C(=O)O)cc3)c(C(=O)O)c3cc(Oc4cccc(Cl)c4)ccc32)cc1`, the melting point lay within 211 to 217 °C. Next, `C=C(c1ccc(Cl)cc1)c1ccc(NC(=O)c2cc(Br)cc(Br)c2O)cc1`: 181 to 183 °C; `COc1ccc(OC(=O)Nc2cc(C(=O)O)cc(C(=O)O)c2)cc1`: more than 300 °C; `CC(=Cc1ncon1)c1ccc(Cl)cc1`: 56 to 57 °C. With `COc1ccc(C2=NN(c3ccc(C(=O)O)cc3)C(=O)[C@H]3CC=CC[C@@H]23)cc1Cl` (relative stereo), the melting point fell in the range of 222 to 224 °C. For `CN1CCNCCNCCNCCNCC1` the value was 71 to 72.5 °C. Next, `CCOc1ccc2c(c1)N=C(c1cccc(-c3ccc(C)nc3)c1)CC(=O)N2`: 173 °C; `COc1cc2cc3c(Nc4ccc(F)c(Cl)c4)c(C#N)cnc3cc2cc1OCCCl`: 137 to 159 °C; `CS(=O)(=O)c1ccc(C(O)c2ccc3ccccc3c2)cc1` (configuration not stated): 100 °C. Next, `COC(=O)c1ccc(Oc2ccccc2C=O)c([N+](=O)[O-])c1`: 109 to 110 °C; `Cc1oc(-c2ccccc2)nc1COc1ccc(CON=C(C(=O)O)C(C)C)cc1`: 128 to 129 °C. Molecule `CCCCCCCCCCCCCCCCCCNC(=O)NN` displayed a melting point of 100 °C. `Cc1ccc(OCCCCCNc2cccc3c2C(=O)c2cccc4[nH]nc-3c24)cc1` came in with a melting point of 122 to 125 °C. Next, `Cn1c(=O)oc2cc(CCN3CCN(c4ccc(F)cc4)CC3)ccc21`: 161 to 164 °C; `CC1(C)CC(O)CC(C)(C)N1Cc1ccc(CN2C(C)(C)CC(O)CC2(C)C)cc1`: 237 to 239 °C; `CC(C)Cn1c(CN)c(-c2ccccc2)c2cc(Br)ccc2c1=O`: 129 to 130 °C. For `O=C1c2ccccc2CCC1n1cncn1` (configuration not stated) the value was 96 to 98 °C; for `O=c1ccsn1CNc1ccc(Cl)c(Cl)c1`, 120 to 122 °C.

For `O=C1CCC(N2Cc3cc(CNC(=O)c4ccccc4C(F)(F)F)ccc3C2=O)C(=O)N1` (configuration not stated), the melting point is 303 to 305 °C. `CCOC(=O)c1cccc(Oc2ncccc2OCCCc2ccncc2O)c1` returned a melting point of 76 to 79 °C. Turning to `COc1cc(C(=O)O)ccc1Cc1cn(C)c2ccc(CC(C)C(=O)NCC3CCCC3)cc12` (configuration not stated), the melting point was in the range of 103 to 109 °C.

Molecule `CC(=O)c1cnn(O)c1-c1ccc(C(=O)O)cc1C` registered a melting point of more than 250 °C. For `CC(C)NC(=S)N1CCc2[nH]cnc2C1c1ccccc1` (configuration not stated) the value was 198 °C; for `O=C(O)c1ccc(-c2ccccn2)cc1`, 232 to 234 °C; for `COc1cc(NC(=O)C(F)(F)F)ccc1N1CCN(CCN(C(=O)C2CCCCC2)c2ccccn2)CC1`, 144 to 148 °C.

The values above are taken from a melting point compilation (Tetko et al.; mined from patent text by program, amines drawn as free bases though some values may be those of a salt).
